Earlier results on 1 compound are cited in patent publication US20230310544A1, “ANTI-RNA VIRAL PHARMACEUTICAL COMBINATION THERAPY WITH APROTININ + anti-RNA DRUG” (ASAVI LLC, priority 2022, published 2023).

One data set concerns SARS-CoV-2. The conditions noted are these: human, in vivo.
Another data set has as its system COVID-19. The conditions noted are these: COVID-19 patients.

In the case of `NC(=O)c1nc(F)c[nH]c1=O` [FVP, favipiravir], in the data set on SARS-CoV-2, the “Median time to elimination of SARS-CoV-2 confirmed by RT-PCR, days (IQR)” value is listed as 4.5 days; the “Median time to improvement in clinical status by 2 points on the WHO-OSCI, days (IQR)” value is on record as 14.0 days; the “Median time to normalization of body temperature (<37° C.), days (IQR)” value is on record as 2.0 days. Moreover, in the data set on COVID-19, the “time to clinical improvement” value was at most 14 days and the “time to viral clearance” value is recorded as at most 7 days.
